Data as given in US20150057154A1, “HERBICIDAL COMPOSITIONS COMPRISING SULFENTRAZONE plus PROPYZAMIDE AND SULFENTRAZONE PLUS PROPYZAMIDE PLUS ETHALFLURALIN” (Dow AgroSciences LLC, priority 2013, published 2015).

Tests used:
Type in all cases: in vivo
[1] = test system: Sinapis arvensis L. (wild mustard, SINAR); experiment: Field trial, percent visual weed control of wild mustard
Procedure: (§1) These trials were conducted under field conditions in western Canada. The trials were designed as split-block, factorial designs with timing (spring vs. fall), Authority 480 (sulfentrazone) rate (0, 52 or 105 g ai/ha), Kerb™ SC (propyzamide) rate (0, 450 or 900 g ai/ha) as the main factors and Edge™ Granular (ethalfluralin) application (0 or 1100 g ai/ha) as the split-block factor. Edge™ was applied to test plots at a rate of 1100 g ai/ha using a granular applicator in the fall of 2011 (17 October to 9 November). Authority 480 and Kerb™ SC treatments were applied to test plots either in the fall prior to or after Edge™ application (17 October to 3 November), or in the spring of 2012 (24 April to 5 May). An untreated control was also included in each trial. Following herbicide treatment application in the spring of 2012, lentils were seeded or field peas were seeded into plots. Weed efficacy assessments were taken at 9-15 days after the spring application (DAA2) for an initial evaluation, 33 DAA2 for an early evaluation, 48-52 DAA2 for a mid evaluation, and 77-85 DAA2 for a late evaluation. The trial sites had naturally occurring populations of weeds. The weed spectrum included, but was not limited to, Avena fatua (wild oats, AVEFA), Hordeum jubatum (foxtail barley, HORJU), Kochia scoparia (kochia, KCHSC) and Sinapis arvensis L. (wild mustard, SINAR).
(§2) The treated plots and control plots were rated blind at various intervals after application. Ratings were based of Percent (%) Visual weed control, where 0 corresponds to no injury and 100 corresponds to complete kill.
(§3) Colby's equation was used to determine the herbicidal effects expected from the mixtures (Colby, S. R. Calculation of the synergistic and antagonistic response of herbicide combinations. Weeds 1967, 15, 20-22).
(§4) The following equation was used to calculate the expected activity of mixtures containing two active ingredients, A and B:
(§5) Expected=A+B−(A×B/100) • A=observed efficacy of active ingredient A at the same concentration as used in the mixture; • B=observed efficacy of active ingredient B at the same concentration as used in the mixture.
(§6) For mixtures containing three herbicidal active ingredients, the following equation can be used to calculate the expected activity:
(§7) [formula] • A=observed efficacy of a first active ingredient at the same concentration as used in the mixture; • B=observed efficacy of a second active ingredient B at the same concentration as used in the mixture; • C=observed efficacy of a third active ingredient C at the same concentration as used in the mixture.

[2] = test system: Avena fatua (wild oats, AVEFA); experiment: Field trial, percent visual weed control of wild oats
Procedure: as §1, §2, §3, §4, §5, §6, §7

[3] = test system: Hordeum jubatum (foxtail barley, HORJU); experiment: Field trial, percent visual weed control of foxtail barley
Procedure: as §1, §2, §3, §4, §5, §6, §7

[4] = test system: Kochia scoparia (kochia, KCHSC); experiment: Field trial, percent visual weed control of kochia
Procedure: as §1, §2, §3, §4, §5, §6, §7

[5] = Table 1, Fall application, propyzamide 900 g ai/ha
[6] = Table 2, Spring application, propyzamide 450 g ai/ha
[7] = Table 3, Spring application, propyzamide 450 g ai/ha
[8] = Table 1, Fall application, propyzamide 450 g ai/ha
[9] = Table 2, Spring application, propyzamide 900 g ai/ha
[10] = Table 3 (Spring applications), ethalfluralin 1100 g ai/ha (Edge Granular applied in the fall)
[11] = Table 4, Fall application, ethalfluralin 1100 g ai/ha
[12] = Table 1, Fall application, sulfentrazone 52 g ai/ha
[13] = Table 3, Spring application, sulfentrazone 52 g ai/ha
[14] = Table 4, Fall application, sulfentrazone 52 g ai/ha
[15] = Table 2, Spring application, sulfentrazone 52 g ai/ha
[16] = Table 1, Fall application, sulfentrazone 105 g ai/ha

C#CC(C)(C)NC(=O)c1cc(Cl)cc(Cl)c1 [Propyzamide, 3,5-dichloro-N-(1,1-dimethyl-2-propyn-1-yl)benzamide]
SINAR Obs (Observed percent weed control) [1, 5]: 38% | SINAR Obs (Observed percent weed control) ([1]; Table 3, Spring application, propyzamide 900 g ai/ha): 10% | SINAR Obs (Observed percent weed control) ([1]; Table 4, Fall application, propyzamide 900 g ai/ha): 38% | AVEFA Obs (Observed percent weed control) [2, 6]: 30% | AVEFA Obs (Observed percent weed control) [2, 7]: 30% | HORJU Obs (Observed percent weed control) [3, 8]: 18% | HORJU Obs (Observed percent weed control) [3, 5]: 59% | HORJU Obs (Observed percent weed control) [3, 6]: 30% | HORJU Obs (Observed percent weed control) [3, 9]: 68% | KCHSC Obs (Observed percent weed control) [4, 8]: 0% | KCHSC Obs (Observed percent weed control) [4, 5]: 65% | KCHSC Obs (Observed percent weed control) [4, 9]: 0% | KCHSC Obs (Observed percent weed control) [4, 7]: 17% | KCHSC Obs (Observed percent weed control) ([4]; Table 4, Fall application, propyzamide 450 g ai/ha): 0%

C=C(C)CN(CC)c1c([N+](=O)[O-])cc(C(F)(F)F)cc1[N+](=O)[O-] [Ethalfluralin, N-ethyl-N-(2-methyl-2-propen-1-yl)-2,6-dinitro-4-(trifluoromethyl)benzenamine]
SINAR Obs (Observed percent weed control) [1, 10]: 0% | SINAR Obs (Observed percent weed control) [1, 11]: 0% | AVEFA Obs (Observed percent weed control) [2, 10]: 49% | KCHSC Obs (Observed percent weed control) [4, 10]: 55% | KCHSC Obs (Observed percent weed control) [4, 11]: 55%

Cc1nn(-c2cc(NS(C)(=O)=O)c(Cl)cc2Cl)c(=O)n1C(F)F [Sulfentrazone, N-[2,4-dichloro-5-[4-(difluoromethyl)-4,5-dihydro-3-methyl-5-oxo-1H-1,2,4-triazol-1-yl]phenyl]methanesulfonamide]
SINAR Obs (Observed percent weed control) [1, 12]: 38% | SINAR Obs (Observed percent weed control) [1, 13]: 53% | SINAR Obs (Observed percent weed control) [1, 14]: 25% | AVEFA Obs (Observed percent weed control) [2, 15]: 0% | AVEFA Obs (Observed percent weed control) ([2]; Table 2, Spring application, sulfentrazone 105 g ai/ha): 15% | AVEFA Obs (Observed percent weed control) ([2]; Table 3, Spring application, sulfentrazone 105 g ai/ha): 0% | HORJU Obs (Observed percent weed control) [3, 12]: 15% | HORJU Obs (Observed percent weed control) [3, 16]: 28% | HORJU Obs (Observed percent weed control) [3, 15]: 15% | KCHSC Obs (Observed percent weed control) [4, 12]: 30% | KCHSC Obs (Observed percent weed control) [4, 16]: 40% | KCHSC Obs (Observed percent weed control) [4, 15]: 20% | KCHSC Obs (Observed percent weed control) [4, 13]: 20% | KCHSC Obs (Observed percent weed control) [4, 14]: 30%
